In article PMC13629022 (ACS Omega, 2026):
pIC50: −log10 of the molar value. Entries after “also recorded” stand apart in the source; their conditions may differ.

What was measured:
[1] = test system: murine macrophage-like J774.A1 cells; assay: Cytotoxicity to J774.A1 macrophages (Alamar Blue); conditions: concentrations up to 500 μM (compounds 7 and 13 up to 250 μM)
Description: Cells were incubated for 72 h at 37 °C in a 5% CO2 atmosphere, as previously described. They were then stimulated with LPS (500 ng/mL, Sigma Chemical Co., St. Louis, MO, USA) and IFN-γ (5 ng/mL, Sigma). Compounds were added to the medium at eight concentrations ranging from 1.9 to 500 μM, in triplicate, and incubated for 24 h. Subsequently, 20 μL per well of Alamar Blue (Invitrogen, Carlsbad, CA, USA) was added to the plates for 6 h. Compounds 7, 11, and 13 were evaluated only up to a maximum concentration of 250 μM due to the limited amount of purified material available for testing. Colorimetric readings were performed at 570 and 600 nm. Triton X-100 (5%) was used as the positive control.

[2] = test system: nitric oxide production by stimulated J774.A1 macrophages; assay: Nitric oxide production by LPS + IFN-γ stimulated J774.A1 macrophages (nitrite, Griess method); assay type: cell-based, murine; conditions: Mus musculus, J774.A1, 24 h; for pIC50: read-out: IC50, half maximal inhibitory concentration, NO production, J774.A1 macrophages stimulated with LPS (500 ng/mL) + IFN-γ (5 ng/mL), 24 h, nitrite by Griess; for Emax: read-out: efficacy: maximum effect (% of the maximum possible effect), inhibition of NO production, J774.A1 macrophages stimulated with LPS + IFN-γ, 24 h
Description: (§1) For cytokine and nitric oxide evaluations, J774.A1 cells were seeded in 96-well tissue culture plates at 2 × 10^5 cells per well in DMEM supplemented with 10% FBS and 50 μg/mL gentamicin and incubated for 2 h at 37 °C in a 5% CO2 atmosphere, as previously described. Cells were then stimulated with LPS (500 ng/mL) and IFN-γ (5 ng/mL) in the presence of either the test compounds at different concentrations (3.9–250 μM), the medium alone, or dexamethasone (40 μM, reference drug) and further incubated at 37 °C. Cell-free supernatants were collected 24 h after incubation for IL-1β, IL-6, and nitrite quantification. Cytokine concentrations in the supernatants of J774.A1 cultures were determined by enzyme-linked immunosorbent assay (ELISA) using the DuoSet kit (R&D Systems, Minneapolis, MN, USA), according to the manufacturer’s instructions. Results were expressed as picograms per milliliter (pg/mL) of IL-1β or IL-6. Quantification of nitrite as an indicator of nitric oxide production was performed using the Griess method. Three independent experiments were performed. −

[3] = test system: IL-1β production by stimulated J774.A1 macrophages; assay: IL-1β production by LPS + IFN-γ stimulated J774.A1 macrophages (ELISA); assay type: cell-based, murine; conditions: compounds at 62.5 μM, Dexa 40 μM, 24 h, vs stimulated untreated cells, p < 0.05
Description: as §1, with “Cells” for “For cytokine and nitric oxide evaluations, J774.A1 cells were seeded in 96-well tissue culture plates at 2 × 10^5 cells per well in DMEM supplemented with 10% FBS and 50 μg/mL gentamicin and incubated for 2 h at 37 °C in a 5% CO2 atmosphere, as previously described. Cells”

[4] = test system: IL-6 production by stimulated J774.A1 macrophages; assay: IL-6 production by LPS + IFN-γ stimulated J774.A1 macrophages (ELISA); assay type: cell-based, murine; conditions: compounds at 62.5 μM, Dexa 40 μM, 24 h, vs stimulated untreated cells, p < 0.05
Description: as §1, with “Cells” for “For cytokine and nitric oxide evaluations, J774.A1 cells were seeded in 96-well tissue culture plates at 2 × 10^5 cells per well in DMEM supplemented with 10% FBS and 50 μg/mL gentamicin and incubated for 2 h at 37 °C in a 5% CO2 atmosphere, as previously described. Cells”

Compound | cytotoxic effects in J774 macrophages (in words) [1] | pIC50 [2] | Emax [2] [%] | production of IL-1β (in words) [3] | production of IL-6 (in words) [4]
COC1CC(OC2CCC3(C)C(CCC4(O)C3CC(OC(=O)C=Cc3ccccc3)C3(C)C(O)(C(C)OC(=O)c5ccccc5)CCC43O)C2)OC(C)C1OC1CC(OC)C(OC2OC(C)C(O)C(OC)C2O)C(C)O1 [Compound 4, 12-O-cinnamoyl-20-O-benzoyl-(20R)-5,6-dihydrosarcostin-3-O-β-D-6-deoxy-3-O-methyl-allopyranosyl-(1 → 4)-β-D-oleandropyranosyl-(1 → 4)-β-D-cymaropyranoside] | did not induce cytotoxic effects | < 4.00 | < 50 | significant reduction | reduced IL-1β production but not IL-6
COC1CC(OC2CCC3(C)C(CCC4(O)C3CC(OC(C)=O)C3(C)C(C(C)O)CCC43O)C2)OC(C)C1OC1CC(OC)C(OC2OC(C)C(O)C(OC)C2O)C(C)O1 [Compound 16, 12-O-acetyl-(20S)-5,6,17-trihydrosarcostin-3-O-β-D-6-deoxy-3-O-methyl-allopyranosyl-(1 → 4)-β-D-oleandropyranosyl-(1 → 4)-β-D-cymaropyranoside] | only mild cytotoxicity at the highest concentrations | 4.15 to 4.40 | < 50 | significant reduction | reduced IL-1β production but not IL-6
COC1CC(OC2CCC3(C)C(=CCC4(O)C3CC(OC(=O)C=Cc3ccccc3)C3(C)C(O)(C(C)OC(=O)c5cccnc5)CCC43O)C2)OC(C)C1OC1CC(OC)C(OC2OC(C)C(O)C(OC)C2O)C(C)O1 [Compound 1, 12-O-cinnamoyl-20-O-nicotinoyl-(20R)-sarcostin-3-O-β-D-6-deoxy-3-O-methyl-allopyranosyl-(1 → 4)-β-D-oleandropyranosyl-(1 → 4)-β-D-cymaropyranoside] | did not induce cytotoxic effects | 4.61 | > 70 | significant reduction; also recorded: comparable to those of Dexa | comparable to those of Dexa
COC1CC(OC2CCC3(C)C(CCC4(O)C3CC(OC(=O)C=Cc3ccccc3)C3(C)C(O)(C(C)OC(=O)c5cccnc5)CCC43O)C2)OC(C)C1OC1CC(OC)C(OC2OC(C)C(O)C(OC)C2O)C(C)O1 [Compound 2, 12-O-cinnamoyl-20-O-nicotinoyl-(20R)-5,6-dihydrosarcostin-3-O-β-D-6-deoxy-3-O-methyl-allopyranosyl-(1 → 4)-β-D-oleandropyranosyl-(1 → 4)-β-D-cymaropyranoside] | did not induce cytotoxic effects | 4.49 | > 70 | significant reduction; also recorded: comparable to those of Dexa | comparable to those of Dexa
